Measured values: patent publication US6936619B2, “Quinazolinone compounds useful in therapy” (Pfizer, Inc., priority 2002, dated 2005)

Target: T1, α1L Receptor (Oryctolagus cuniculus, UniProt O02824)
T1 construct: A single rabbit aorta was cleaned of connective tissue, cut into rings; from tissue; host or cells: rabbit aorta rings
T1 sequence (O02824 1-466): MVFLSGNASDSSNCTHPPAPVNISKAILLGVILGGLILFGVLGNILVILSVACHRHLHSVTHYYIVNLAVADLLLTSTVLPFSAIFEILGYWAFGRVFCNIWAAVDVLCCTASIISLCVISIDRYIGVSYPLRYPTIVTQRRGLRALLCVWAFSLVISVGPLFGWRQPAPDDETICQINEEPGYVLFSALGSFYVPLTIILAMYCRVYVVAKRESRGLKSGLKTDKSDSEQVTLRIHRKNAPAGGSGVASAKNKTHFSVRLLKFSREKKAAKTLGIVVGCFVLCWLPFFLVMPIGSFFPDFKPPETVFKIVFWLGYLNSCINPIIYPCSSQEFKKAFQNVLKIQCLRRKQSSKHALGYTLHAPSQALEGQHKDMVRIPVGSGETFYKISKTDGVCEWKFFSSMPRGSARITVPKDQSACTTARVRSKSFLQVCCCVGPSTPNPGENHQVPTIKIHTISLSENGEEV
Experiment: Contractile responses of rabbit aorta (methoxamine-induced), antagonist pA2
Details: rabbit aorta rings, methoxamine as agonist, 60 minutes with compound, Schild analysis; read-out: pA2 v α1L (converted)
Experimental: Contractile Responses of Rabbit Aorta (α1L Receptor)
A single rabbit aorta was cleaned of connective tissue, cut into rings ˜3 mm in length, then denuded of […] by rubbing very gently with a probe. The lengths of tissue are then mounted in the 5 mL organ baths, which contain the modified Krebs of the following composition (mM): NaCl (119), KCl (4.7), CaCl2 (2.5), KH2PO4 (1.2), MgSO4 (1.2), NaHCO3 (25), glucose (11), and gassed with 95% O2/5% CO2. The tissues are placed under ˜1.5 g tension, and are left to equilibrate for ˜60 minutes on a pump speed of ˜5 mL\minute, adjusting the tension to 1-1.5 g if necessary after 15 and 45 minutes. A 1M stock solution (1×10^−3M bath conc.) of methoxamine in water was made and 1:10 dilutions made using the same diluent. A sensitising dose of 120 mM KCl (bath concentration) was added to each bath. After the maximum response had been reached (usually about 6-8 minutes), the tissues are washed with Krebs solution for 60 minutes, pump speed at ˜2.97 mL/min. […]
The data was captured on ADA analysis in-vitro software, which expresses the readings as a % of the maximum response of the control curve, draws control and test compound dose response curves, and calculates a EC50 and then dose ratio (DR), the ratio between control and treatment curve EC50, for each treatment. […]

For `COc1cc(C2CC2)c2c(=O)[nH]c(N3CCc4nc(CN5CCOCC5)ccc4C3)nc2c1` [Example 11, 5-Cyclopropyl-7-methoxy-2-(2-morpholin-4-ylmethyl-7,8-dihydro[1,6]-naphthyridin-6(5H)-yl)-4(3H)-quinazolinone], the Kb was 0.1 nM.
